Test results: PMC9819389, “Antiandrogenic and Estrogenic Activity Evaluation of Oxygenated and Nitrated Polycyclic Aromatic Hydrocarbons Using Chemically Activated Luciferase Expression Assays” (International Journal of Environmental Research and Public …, 2022)
Entries after “also recorded” stand apart in the source; their conditions may differ. Like-named read-outs stand apart in the source and are kept apart here. Marks after values point to notes of the source that are not given here.

Key:
human AR [1] = molecular target: T1, human AR (Homo sapiens, UniProt P10275); test: AR-CALUX assay, antiandrogenic (AR antagonistic) activity, U2OS-luc cells; type: cell-based; design: host or cells: human U2OS-luc (osteoblastic osteosarcoma) cells; conditions: for IC25: 24 h exposure with 100 pM DHT (EC50 level); for REPmol (IC25): molar relative potency to flutamide, IC25-based; for IC50: read-out: IC50; for inhibition of AR-mediated luciferase activity: coexposure to DHT at 10 nM (100 × EC50)
T1 sequence (P10275 1-920): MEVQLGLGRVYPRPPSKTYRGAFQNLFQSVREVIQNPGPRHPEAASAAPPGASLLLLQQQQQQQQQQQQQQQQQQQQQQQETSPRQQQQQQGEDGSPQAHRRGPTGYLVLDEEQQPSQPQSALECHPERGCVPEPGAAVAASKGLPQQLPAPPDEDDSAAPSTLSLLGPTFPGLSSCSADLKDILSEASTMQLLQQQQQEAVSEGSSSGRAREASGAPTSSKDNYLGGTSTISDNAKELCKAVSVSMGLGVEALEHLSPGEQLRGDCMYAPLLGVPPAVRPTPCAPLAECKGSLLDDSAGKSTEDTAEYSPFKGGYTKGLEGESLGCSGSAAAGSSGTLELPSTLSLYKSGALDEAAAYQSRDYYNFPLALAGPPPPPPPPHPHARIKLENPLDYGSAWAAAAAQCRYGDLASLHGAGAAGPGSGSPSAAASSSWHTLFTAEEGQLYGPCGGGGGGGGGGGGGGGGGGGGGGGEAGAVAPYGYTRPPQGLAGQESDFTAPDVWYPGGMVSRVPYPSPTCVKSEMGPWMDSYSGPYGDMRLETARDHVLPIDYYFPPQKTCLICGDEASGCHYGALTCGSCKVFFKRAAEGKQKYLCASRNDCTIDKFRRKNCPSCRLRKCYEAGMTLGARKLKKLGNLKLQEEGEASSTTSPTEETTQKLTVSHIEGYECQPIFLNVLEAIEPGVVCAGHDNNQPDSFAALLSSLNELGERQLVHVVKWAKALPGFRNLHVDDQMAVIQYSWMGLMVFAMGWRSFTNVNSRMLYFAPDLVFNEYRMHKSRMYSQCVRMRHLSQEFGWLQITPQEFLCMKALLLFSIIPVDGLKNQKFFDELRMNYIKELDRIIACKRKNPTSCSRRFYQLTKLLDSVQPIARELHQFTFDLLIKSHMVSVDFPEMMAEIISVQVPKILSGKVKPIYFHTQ
Experimental: (§1) The AR- and ER-CALUX assays for the polycyclic aromatic compounds were evaluated according to previously described methods, which used human U2OS-luc cells developed by BioDetection Systems b.v. (Amsterdam, The Netherlands). The cells are transfected stably with human AR and ER, respectively, and a luciferase reporter gene under their respective steroid receptor response elements. […] They were incubated at 37 °C in a humidified atmosphere containing 5% carbon dioxide. […] The medium was then removed, and the cells were lysed. A solution of luciferin was then added, and the luminescence intensity was measured with an ARVO™ X3 luminometer from PerkinElmer (Waltham, MA, USA). A sigmoid dose–response curve for a chemical was fitted to the Hill equation given by Equation (1) using SigmaPlot 11.0 from Systat Software Inc. (San Jose, CA, USA). y = min + (max − min)/(1 + (a1/x)^a^2)(1) where, y and x are the measured luciferase induction level and compound concentration, respectively. […] The REP values in mol base were obtained by dividing the ICs or ECs of the standard by the ICs or ECs of target compound, respectively.
(§2) All measurements were conducted in triplicate wells. They were repeated twice and trice in the AR- and ER-CALUX assays, respectively, for each concentration in dose–response curve. […] Cell viability was confirmed using 3-(4,5-dimethylthiazol-2-yl)-2,5-diphenyltetrazolium bromide (MTT) assay. If the cell viability was <80% in the positive control, the corresponding exposure dose was considered cytotoxic and excluded from the calculation.

human ER [2] = molecular target: T2, human ER (Homo sapiens, UniProt P03372); test: ER-CALUX assay, estrogenic activity, U2OS-luc cells; type: cell-based; design: host or cells: human U2OS-luc (osteoblastic osteosarcoma) cells; conditions: for EC50 / REPmol (EC50): present study; for EC50: 24 h exposure; for REPmol (EC50): molar relative potency to E2, EC50-based
T2 sequence (P03372 1-595): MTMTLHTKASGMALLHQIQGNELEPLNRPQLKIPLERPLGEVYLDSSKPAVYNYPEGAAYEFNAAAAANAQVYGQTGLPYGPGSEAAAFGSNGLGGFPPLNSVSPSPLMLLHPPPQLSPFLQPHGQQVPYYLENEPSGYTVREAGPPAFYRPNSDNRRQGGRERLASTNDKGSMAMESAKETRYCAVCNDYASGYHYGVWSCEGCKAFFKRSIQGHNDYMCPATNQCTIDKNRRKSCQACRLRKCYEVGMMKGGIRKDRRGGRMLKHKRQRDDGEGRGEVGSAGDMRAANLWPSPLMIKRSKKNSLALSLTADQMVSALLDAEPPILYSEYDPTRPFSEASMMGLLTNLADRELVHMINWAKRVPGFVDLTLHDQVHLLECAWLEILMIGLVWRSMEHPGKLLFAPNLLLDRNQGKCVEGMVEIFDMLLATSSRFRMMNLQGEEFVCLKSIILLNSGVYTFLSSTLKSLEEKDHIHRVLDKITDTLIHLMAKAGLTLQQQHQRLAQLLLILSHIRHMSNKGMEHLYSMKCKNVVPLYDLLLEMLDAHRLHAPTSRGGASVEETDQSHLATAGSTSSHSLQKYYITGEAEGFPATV

human AR [3] = molecular target: T1, human AR; design: method as in Otsuki et al. [38]; key: +, positive; conditions: previous study; ref Otsuki et al. [38]; cited from earlier work
human AR [4] = molecular target: T1, human AR; test: AR-CALUX assay, androgenic (agonistic) activity; type: cell-based; design: host or cells: human U2OS-luc (osteoblastic osteosarcoma) cells; conditions: data not shown
Experimental: as §1

human ER [5] = molecular target: T2, human ER; design: method as in Machala et al. [36]; conditions: previous study; relative to E2; ref Machala et al. [36]; cited from earlier work
ER [6] = conditions: cited from earlier work
ER [7] = tested on: ER; design: method as in Pieterse et al. [30]; conditions: previous study; relative to E2; ref Pieterse et al. [30]; cited from earlier work
AR [8] = conditions: previous study, relative to flutamide, cited from earlier work
AR [9] = tested on: AR; design: method as in Okamura et al. [22]; key: +, positive; conditions: cited from earlier work
ER [10] = tested on: ER; design: method as in Boonen et al. [33]; conditions: previous study; relative to E2; ref Boonen et al. [33]; cited from earlier work
U2OS-luc cells = test: MTT cell viability (cytotoxicity) assay; conditions: cell viability <80% considered cytotoxic
Experimental: as §2

[11] = previous study, relative to E2, ref Šimečková et al. [44]
[12] = previous study, ref Okamura et al. [22]

SMILES: O=[N+]([O-])c1ccc2ccc3c([N+](=O)[O-])ccc4ccc1c2c43 [1,6-DNPy, 1,6-dinitropyrene]
- inhibition at 0.1 µM (human AR [1]; at 0.1 μM (100 nM), maximum soluble concentration, read-out: inhibition of AR activation): > 20%
- EC50 (human ER [2]): U (key: U: < 10% response of 1 nM E2; nd: not detected)
- REPmol (EC50) (human ER [2]): U (key: U: < 10% response of 1 nM E2; nd: not detected)
- antiandrogenic activity, Yeast (human AR [3]): +

SMILES: O=[N+]([O-])c1ccc2ccc3cccc4ccc1c2c34 [1-NPy, 1-nitropyrene]
- IC25 (human AR [1]; present study): 94 nM
- REPmol (IC25) (human AR [1]; present study): 1.4
- IC50 (human AR [1]): 220 nM
- activation (level of the response to 1 nM E2) (human ER [2]; at 10 μM): 14% activation at 10 μM
- antiandrogenic activity, Yeast (human AR [3]): +

SMILES: O=[N+]([O-])c1ccc2c3c(cccc13)-c1ccccc1-2 [3-NFA, 3-nitrofluoranthene]
- concentration above which inhibition of AR-mediated luciferase activity is attenuated (U-shaped curve) (human AR [1]): > 300 nM
- attenuation of antiandrogenic activity (human AR [1]; at high concentrations compared to at 100 nM): approximately 40%
- inhibition of AR-mediated luciferase activity (human AR [1]; compound at 100 nM): 26%
- inhibition of AR-mediated luciferase activity (human AR [1]; compound at 10 μM): 82%
- mode of AR inhibition (human AR [1]; from coexposure to 10 nM DHT): noncompetitive
- IC25 (human AR [1]; present study): 5.3 nM
- REPmol (IC25) (human AR [1]; present study): 32
- IC50 (human AR [1]): 14 nM
- concentration above which AR-mediated luciferase activity increases (U-shaped curve) (human AR [1]; table entry): increase at > 0.3 μM
- EC50 (human ER [2]): U (< 10% response of 1 nM E2)
- REPmol (EC50) (human ER [2]): U (< 10% response of 1 nM E2)
- concentration at which weak androgenic activity was observed (human AR [4]): ≥ 1 µM
- maximum androgenic induction, relative to the EC50 level of DHT (human AR [4]): < 16%
- Emax (human AR [4]; read-out: maximum androgenic induction, level of maximum response of DHT exposure (10 nM)): < 8%
- antiandrogenic activity, Yeast (human AR [3]): +

SMILES: O=C1c2ccccc2C(=O)c2c1ccc1ccccc21 [BAQ, 7,12-benz[a]anthracenequinone]
- IC25 (human AR [1]; present study): 2500 nM
- REPmol (IC25) (human AR [1]; present study): 0.056
- IC50 (human AR [1]): 6400 nM
- REPmol, MVLN (human ER [5]): 1.4 × 10^−6

SMILES: c1ccc2cc3c(ccc4ccccc43)cc2c1 [B[a]A, benz[a]anthracene]
- REPmol, T47D (ER [6]; [11]): 1.6 × 10^−6
- REPmol, U2OS (ER [7]): <2 × 10^−9
- REPmol, U2OS (AR [8]; ref Alvarez-Muñoz et al. [28]): 1.3
- REPmol, U2OS (AR [8]; ref Marin-Kuan et al. [29]): 0.4
- antiandrogenic activity, PC3 (AR [9]; [12]): +
- REPmol, MVLN (human ER [5]): 7.9 × 10^−7

SMILES: c1ccc2c(c1)cc1ccc3cccc4ccc2c1c34 [B[a]P, benzo[a]pyrene]
- REPmol, T47D (ER [6]; [11]): 3.1 × 10^−6
- REPmol, U2OS (ER [7]): 2 × 10^−6
- REPmol, VM7 (ER [10]): 5.3 × 10^−6
- REPmol, U2OS (AR [8]; ref Marin-Kuan et al. [29]): 0.4
- REPmol, U2OS (AR [8]; ref Pieterse et al. [30]): 0.1
- antiandrogenic activity, PC3 (AR [9]; [12]): +

SMILES: c1ccc2c(c1)ccc1c3ccccc3ccc21 [Chr, Chrysene]
- REPmol, T47D (ER [6]): U (key: U: < 10% response of 1 nM E2; nd: not detected)
- antiandrogenic activity, PC3 (AR [9]): +

SMILES: c1ccc2c(c1)cc1ccc3c4ccccc4cc4ccc2c1c43 [DB[a,h]P, dibenzo[a,h]pyrene]
- antiandrogenic activity (in words) (human AR [1]; present study): not observed; also recorded: inactive
- REPmol, U2OS (ER [7]): 2 × 10^−5
- REPmol, U2OS (AR [8]; ref Pieterse et al. [30]): <0.003 ^e

SMILES: C[C@]12CC[C@@H]3c4ccc(O)cc4CC[C@H]3[C@@H]1CC[C@@H]2O [E2, 17β-estradiol, reference compound]
- REPmol, T47D (ER [6]; [11]): 1
- REPmol, U2OS (ER [7]): 1
- REPmol, VM7 (ER [10]): 1

SMILES: c1ccc2c(c1)-c1cccc3cccc-2c13 [FA, fluoranthene]
- REPmol, VM7 (ER [10]): 4.1 × 10^−7
- REPmol, U2OS (AR [8]; ref Alvarez-Muñoz et al. [28]): 0.96 ^f

SMILES: O=C1C(=O)c2ccccc2-c2ccccc21 [PhQ, phenanthrenequinone]
- IC25 (human AR [1]; present study): 180 nM
- REPmol (IC25) (human AR [1]; present study): 0.63
- IC50 (human AR [1]): 390 nM
- concentration at which cytotoxicity was confirmed (U2OS-luc cells): 1000 nM

SMILES: c1ccc2c(c1)ccc1ccccc12 [Phe, phenanthrene]
- REPmol, U2OS (ER [7]): <3 × 10^−9
- REPmol, VM7 (ER [10]): 1.2 × 10^−6
- REPmol, U2OS (AR [8]; ref Pieterse et al. [30]): 0.1 ^e

SMILES: c1cc2ccc3cccc4ccc(c1)c2c34 [Py, pyrene]
- REPmol, T47D (ER [6]; [11]): 5.3 × 10^−7
- REPmol, U2OS (AR [8]; ref Alvarez-Muñoz et al. [28]): 0.41
- REPmol, U2OS (AR [8]; ref Pieterse et al. [30]): 0.03
- antiandrogenic activity, PC3 (AR [9]; [12]): +
